{"source": "patent US20210330644A1", "about": "“COMBINATION THERAPY FOR TREATING METASTATIC PROSTATE CANCER” (Progenics Pharmaceuticals, Inc, priority 2018, published 2021)", "origin": "cited, not measured here", "tested_on": "mCRPC"}
{"compound": "CNC(=O)c1ccc(N2C(=S)N(c3ccc(C#N)c(C(F)(F)F)c3)C(=O)C2(C)C)cc1F", "note": "[enzalutamide]", "values": [{"measurement": "proportion of patients with >50% decline in PSA from baseline", "setting": "after progression under abiraterone therapy of any duration", "result": "30-51%"}, {"measurement": "benefit in abiraterone-resistant patients", "setting": "majority of data", "result": "limited benefit"}]}
